Common to all, as to assay: Functional assay on peptide microarray (CTO/AF555 profile)
In one test the test system is E. coli O111:B4. The format is cell-based, Escherichia coli O111:B4. The conditions noted are these: EC; CTO and AF555 labeled cells. An excerpt: (§1) In order to make our technology more informative, we have developed a procedure for distinguishing those classes of peptides directly on the microarray (see FIG. 1c). Using the intracellular stain CTO we detected the first class (peptide-binders) and the third class (no activity). We decided to involve additional reference dye “Alexa Fluor-555” with an NHS ester active group that attack free amines present in membrane-bound proteins. It was expected, and subsequently shown, that peptide-binders should have signals dominated by both dyes on parallel arrays (profile CTO+AF+). In the case of peptides with killing activity, CTO should leak out of cells once the membrane is disrupted (profile CTO−AF+).
(§2) Before probing, the slides were treated with 90% TFA (trifluor-acetic acid) to get rid of non-immobilized peptides, blocking groups and probable organic impurities followed by DMF, ethanol and deionized water washing. […]
(§3) Turbidity of overnight cultures was measured at OD600. The CFU/ml value was calculated according to McFarland turbidity standard. […]
(§4) Microarrays were scanned by using a Perkin-Elmer ProScanArray HT Microarray Scanner with the 488, 543 and 633 nm excitation lasers at 100% power and 70% photomultiplier tube gain. […] All scanned images were analyzed by using GenePix Pro 6.0 software (Axon Instruments, Union City, Calif., USA). […]

A further test has as its system P. aeruginosa PAO-1. The format is cell-based, Pseudomonas aeruginosa. Particulars: PA; CTO and AF555 labeled cells.
Source text: as §1, §2, §3, §4

A further test relates to S. aureus UAB637. Format: cell-based, Staphylococcus aureus. Particulars: SA; CTO and AF555 labeled cells.
Source text: as §1, §2, §3, §4

The next test concerns S. mutans UAB147. The format is cell-based, Streptococcus mutans. The conditions noted are these: SM; CTO and AF555 labeled cells.
Source text: as §1, §2, §3, §4

In a further test the test system is B. subtilis. Format: cell-based, Bacillus subtilis. The conditions noted are these: BS; CTO and AF555 labeled cells.
Source text: as §1, §2, §3, §4

Regarding DRIFHKMQHKPYKIKKRGSC, the “microarray profile (lytic / binder / no profile)” value is listed as “binder” in the test with E. coli O111:B4; “lytic” in the test on P. aeruginosa PAO-1; “binder” in the test with S. aureus UAB637; “lytic” with S. mutans UAB147; “no profile” in the test with B. subtilis.

On to RWRRHKHFKRPHRKHKRGSC, for which the “microarray profile (lytic / binder / no profile)” value was “no profile” in the test on E. coli O111:B4; “lytic” in the test with P. aeruginosa PAO-1; “lytic” in the test on S. aureus UAB637; “lytic” in the test on S. mutans UAB147; “lytic” in the test on B. subtilis.
